Measured values from US20160046620A1, “METHODS OF CONTROLLING NEONICOTINOID RESISTANT PESTS” (SYNGENTA PARTICIPATIONS AG, priority 2013, published 2016).

System: Orius laevigatus
Experiment: Safety to beneficial species: test on Orius laevigatus on treated french bean leaf discs
Type: in vivo
Details: Orius laevigatus adults; for Corrected Mortality (%) 2 DAI: 2 days after infestation; for Corrected Mortality (%) 4 DAI: 4 days after infestation
Procedure: Phaseolus vulgaris var. Fulvio (french bean) plants were reduced to one leaf. With the leaves held in a horizontal position, a track sprayer was used to treat the plants at a rate corresponding to […]. Once dry, leaf discs were collected from the plants and placed treated side up in petri dishes containing 1% water agar.
A paper triangle was added for shelter, and a suitable amount of Ephestia eggs were added as a food supply. Five (5) Orius laevigatus (predatory bug, Syngenta Bioline) adults were added and the dishes closed with a cotton filter and perforated plastic lid. The dishes were incubated in a climate chamber at 25° C., 75% relative humidity, 16:8 h light/dark regime.
Six replicates were provided for each treatment and concentration level. The number of living and dead Orius laevigatus were counted two and four days after infestation (DAI). At the day two evaluation the food supply was replenished.

## C#CCN1[C@@H]2CC[C@H]1C[C@](C#N)(c1cncc(C#N)c1)C2 [Compound 1.074, (1S,3S,5R)-3-(5-cyano-pyridin-3-yl)-8-prop-2-ynyl-8-aza-bicyclo[3.2.1]octane-3-carbonitrile]
50 ppm
  Corrected Mortality (%) 2 DAI: 4%
  Corrected Mortality (%) 4 DAI: 4%
100 ppm
  Corrected Mortality (%) 2 DAI: 0%
  Corrected Mortality (%) 4 DAI: 0%
200 ppm
  Corrected Mortality (%) 2 DAI: 7%
  Corrected Mortality (%) 4 DAI: 39%

## N#Cc1cncc([C@]2(C#N)C[C@H]3CC[C@@H](C2)N3CC(F)(F)F)c1 [Compound 1.085]
50 ppm
  Corrected Mortality (%) 2 DAI: 0%
  Corrected Mortality (%) 4 DAI: 9%
100 ppm
  Corrected Mortality (%) 2 DAI: 0%
  Corrected Mortality (%) 4 DAI: 9%
200 ppm
  Corrected Mortality (%) 2 DAI: 0%
  Corrected Mortality (%) 4 DAI: 22%

## O=[N+]([O-])NC1=NCCN1Cc1ccc(Cl)nc1 [Imidacloprid, reference compound]
50 ppm
  Corrected Mortality (%) 2 DAI: 11%
  Corrected Mortality (%) 4 DAI: 30%
100 ppm
  Corrected Mortality (%) 2 DAI: 43%
  Corrected Mortality (%) 4 DAI: 65%
200 ppm
  Corrected Mortality (%) 2 DAI: 75%
  Corrected Mortality (%) 4 DAI: 100%
